PubChem BioAssay (NCI)
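All cell lines were grown in 96-well plates and treated with compound for 48 hours. TGI: total growth inhibition.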

Assays:
Experiment in all cases: NCI anticancer screen, dose series, 48 h
M14 melanoma = system: M14 melanoma
SNB-78 CNS = system: SNB-78 CNS
SK-MEL-5 melanoma = system: SK-MEL-5 melanoma
U251 CNS = system: U251 CNS
DLD-1 colon = system: DLD-1 colon
K-562 leukemia = system: K-562 leukemia
786-0 renal = system: 786-0 renal
HOP-62 NSCLC = system: HOP-62 NSCLC
RXF 393 renal = system: RXF 393 renal
HL-60(TB) leukemia = system: HL-60(TB) leukemia
SF-295 CNS = system: SF-295 CNS
HCC-2998 colon = system: HCC-2998 colon
A498 renal = system: A498 renal
A549 NSCLC = system: A549 NSCLC
MALME-3M melanoma = system: MALME-3M melanoma
MOLT-4 leukemia = system: MOLT-4 leukemia
EKVX NSCLC = system: EKVX NSCLC
SNB-75 CNS = system: SNB-75 CNS
OVCAR-8 ovarian = system: OVCAR-8 ovarian
UO-31 renal = system: UO-31 renal
SF-268 CNS = system: SF-268 CNS
NCI-H23 lung = system: NCI-H23 lung
SR leukemia = system: SR leukemia
LXFL 529 NSCLC = system: LXFL 529 NSCLC
SW-620 colon = system: SW-620 colon
SK-MEL-28 melanoma = system: SK-MEL-28 melanoma
NCI-H522 lung = system: NCI-H522 lung
DMS 273 small cell lung = system: DMS 273 small cell lung
HOP-18 NSCLC = system: HOP-18 NSCLC
NCI-H226 lung = system: NCI-H226 lung
UACC-62 melanoma = system: UACC-62 melanoma
HCT-116 colon = system: HCT-116 colon
IGROV1 ovarian = system: IGROV1 ovarian
SNB-19 CNS = system: SNB-19 CNS
ACHN renal = system: ACHN renal
OVCAR-4 ovarian = system: OVCAR-4 ovarian
HCT-15 colon = system: HCT-15 colon
SK-OV-3 ovarian = system: SK-OV-3 ovarian
DMS 114 small cell lung = system: DMS 114 small cell lung
RPMI-8226 leukemia = system: RPMI-8226 leukemia
COLO 205 colon = system: COLO 205 colon
HOP-92 NSCLC = system: HOP-92 NSCLC
UACC-257 melanoma = system: UACC-257 melanoma
SN12C renal = system: SN12C renal
XF 498 CNS = system: XF 498 CNS
CCRF-CEM leukemia = system: CCRF-CEM leukemia
HT29 colon = system: HT29 colon
SF-539 CNS = system: SF-539 CNS
KM20L2 colon = system: KM20L2 colon
LOX IMVI melanoma = system: LOX IMVI melanoma
M19-MEL melanoma = system: M19-MEL melanoma
NCI-H460 lung = system: NCI-H460 lung
SK-MEL-2 melanoma = system: SK-MEL-2 melanoma
TK-10 renal = system: TK-10 renal
KM12 colon = system: KM12 colon
OVCAR-5 ovarian = system: OVCAR-5 ovarian
CAKI-1 renal = system: CAKI-1 renal

Measured: TGI

COCC12CC(CC1=O)C1C2ON2c3ccccc3C(=O)C12c1ccccc1 (centres undefined)
not listed: LOX IMVI melanoma | M19-MEL melanoma | NCI-H460 lung | SK-MEL-2 melanoma | TK-10 renal | KM12 colon | OVCAR-5 ovarian | CAKI-1 renal
> 100 µM: all other assays above

COc1ccc(C2S/C(=C\c3cccc(O)c3)C(=O)N2NC(=O)Cc2ccccc2)cc1 (centres undefined)
not listed: SNB-78 CNS | HCC-2998 colon | EKVX NSCLC | SK-MEL-28 melanoma | SNB-19 CNS | XF 498 CNS | KM20L2 colon
> 100 µM: all other assays above
